Results as given in US7998965B2, “Glutamate aggrecanase inhibitors” (Wyeth LLC, priority 2005, dated 2011).

target: T1, purified recombinant human Aggrecanase-1 (rAgg1) (Homo sapiens, UniProt O75173); assay: In vitro fluorescence screen for Aggrecanase-1 inhibitors; format: biochemical; conditions: Table 1
T1 sequence (O75173 213-837): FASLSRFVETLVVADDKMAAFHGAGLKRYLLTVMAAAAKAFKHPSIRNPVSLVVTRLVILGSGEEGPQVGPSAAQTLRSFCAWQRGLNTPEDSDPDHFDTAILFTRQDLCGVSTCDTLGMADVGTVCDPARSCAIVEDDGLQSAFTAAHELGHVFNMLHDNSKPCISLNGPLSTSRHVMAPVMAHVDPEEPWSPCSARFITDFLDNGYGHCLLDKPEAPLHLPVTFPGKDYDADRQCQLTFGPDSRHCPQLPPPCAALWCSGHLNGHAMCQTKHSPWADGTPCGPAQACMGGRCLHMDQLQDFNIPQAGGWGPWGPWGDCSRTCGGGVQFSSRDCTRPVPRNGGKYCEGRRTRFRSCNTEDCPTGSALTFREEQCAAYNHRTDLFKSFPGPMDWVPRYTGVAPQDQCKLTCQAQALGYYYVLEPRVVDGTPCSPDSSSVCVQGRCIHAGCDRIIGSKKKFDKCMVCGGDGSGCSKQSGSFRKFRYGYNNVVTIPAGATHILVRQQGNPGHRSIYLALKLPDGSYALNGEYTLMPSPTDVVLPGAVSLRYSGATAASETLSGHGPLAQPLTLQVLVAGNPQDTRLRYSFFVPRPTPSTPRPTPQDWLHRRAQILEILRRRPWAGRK

With `COc1cc(C(=O)N[C@@H](CCC(=O)O)C(=O)NCc2ccccc2)cc(OC)c1-c1ccccc1` [Example 17AAA, N^1-benzyl-N^2-[(2,6-dimethoxy-1,1′-biphenyl-4-yl)carbonyl]-L-α-glutamine] the “Agg1 IC50 (nM)” value was “no inh”.

same assay, conditions: Table 1; @ 7,500 (nM)

Point of comparison: `O=C(O)CC[C@H](NC(=O)c1ccc(-c2ccc(OCC3CCCCC3)cc2)cc1)C(=O)NCc1ccccc1` [Example 15D, N^1-benzyl-N^2-{[4′-(cyclohexylmethoxy)-1,1′-biphenyl-4-yl]carbonyl}-L-α-glutamine], “Agg1 % @ concentration” value 86% @. Against it:
- CCCCOc1ccc(-c2ccc(C(=O)N[C@@H](CCC(=O)O)C(=O)NCc3ccccc3)cc2)cc1 [Example 15B, N^1-benzyl-N^2-[(4′-butoxy-1,1′-biphenyl-4-yl)carbonyl]-L-α-glutamine] — lower, 67% @
- O=C(O)CC[C@H](NC(=O)c1ccc(-c2ccc(OCC3CCC3)cc2)cc1)C(=O)NCc1ccccc1 [Example 15C, N^1-benzyl-N^2-{[4′-(cyclobutylmethoxy)-1,1′-biphenyl-4-yl]carbonyl}-L-α-glutamine] — lower, 50% @

same assay, conditions: Table 1; @ 16,700 (nM)

In the case of `CCOc1ccc(-c2ccc(C(=O)N[C@@H](CCC(=O)O)C(=O)NCc3ccccc3)cc2)cc1` [Example 14, N^1-benzyl-N^2-[(4′-ethoxy-1,1′-biphenyl-4-yl)carbonyl]-L-α-glutamine], the “Agg1 % @ concentration” value is reported as 60% @.

same assay, conditions: Table 1; read-out: Agg1 IC50

Point of comparison: `COc1cc(COc2ccc(-c3ccc(C(=O)N[C@@H](CCC(=O)O)C(=O)NCc4ccccc4)cc3)cc2)cc(OC)c1` [Example 15G, N^1-benzyl-N^2-({4′-[(3,5-dimethoxybenzyl)oxy]-1,1′-biphenyl-4-yl}carbonyl)-L-α-glutamine], IC50 2200 nM. Against it:
- O=C(O)CC[C@H](NC(=O)c1ccc2c(c1)C(=O)c1ccccc1-2)C(=O)NCCCc1ccccc1 [Example 8SSSSSS, N^2-[(9-oxo-9H-fluoren-2-yl)carbonyl]-N^1-(3-phenylpropyl)-L-α-glutamine] — 15-fold lower, 146 nM
- O=C(O)CC[C@H](NC(=O)c1ccc(-c2ccccc2)cc1)C(=O)NCCc1ccccc1F [Example 8TT, N^2-(biphenyl-4-ylcarbonyl)-N^1-[2-(2-fluorophenyl)ethyl]-L-α-glutamine] — 7.3-fold lower, 300 nM
- CC(C)(NC(=O)[C@H](CCC(=O)O)NC(=O)c1ccc(-c2ccccc2)cc1)c1ccccc1 [Example 8TTT, N^2-(biphenyl-4-ylcarbonyl)-N^1-(1-methyl-1-phenylethyl)-L-α-glutamine] — higher, > 10000 nM
- O=C(O)CC[C@H](NC(=O)c1ccc(Oc2ccccc2)cc1)C(=O)NCCCc1ccccc1 [Example 8TTTTTT, N^2-(4-phenoxybenzoyl)-N^1-(3-phenylpropyl)-L-α-glutamine] — 7.9-fold higher, 17300 nM
- O=C(O)CC[C@H](NC(=O)c1ccc(-c2ccccc2)cc1)C(=O)NCCc1ccc(Cl)cc1 [Example 8UU, N^2-(biphenyl-4-ylcarbonyl)-N^1-[2-(4-chlorophenyl)ethyl]-L-α-glutamine] — 11-fold lower, 200 nM
- O=C(O)CC[C@H](NC(=O)c1ccc(Nc2ncccn2)cc1)C(=O)NCc1ccccc1 [Example 8UUUUUU, N^1-benzyl-N^2-[4-(pyrimidin-2-ylamino)benzoyl]-L-α-glutamine] — 1.8-fold higher, 4000 nM
- O=C(O)CC[C@H](NC(=O)c1ccc2c(c1)Cc1ccccc1-2)C(=O)NCCCCCCO [Example 8VVVVVV, N^2-(9H-fluoren-2-ylcarbonyl)-N^1-(6-hydroxyhexyl)-L-α-glutamine] — 48-fold lower, 46 nM
- O=C(O)CC[C@H](NC(=O)c1ccc(-c2ccccc2)cc1)C(=O)NCc1cccc(F)c1 [Example 8XX, N^2-(1,1′-biphenyl-4-ylcarbonyl)-N^1-(3-fluorobenzyl)-L-α-glutamine] — 7.3-fold lower, 300 nM
- O=C(O)CC[C@H](NC(=O)c1ccc(-c2ccccc2)cc1)C(=O)NCc1ccccc1F [Example 8ZZ, N^2-(1,1′-biphenyl-4-ylcarbonyl)-N^1-(2-fluorobenzyl)-L-α-glutamine] — 10-fold lower, 210 nM
- O=Cc1ccc(-c2ccc(CCNC(=O)[C@H](CCC(=O)O)NC(=O)c3ccc(-c4ccccc4)cc3)cc2)cc1 [Example 9, N^2-(biphenyl-4-ylcarbonyl)-N^1-[2-(4′-formylbiphenyl-4-yl)ethyl]-L-α-glutamine] — 11-fold lower, 200 nM
- COc1ccc(-c2ccc(CCNC(=O)[C@H](CCC(=O)O)NC(=O)c3ccc(-c4ccccc4)cc3)cc2)cc1 [Example 10B, N^2-(biphenyl-4-ylcarbonyl)-N^1-[2-(4′-methoxybiphenyl-4-yl)ethyl]-L-α-glutamine] — 15-fold lower, 150 nM
- CCOc1ccccc1-c1ccc(CCNC(=O)[C@H](CCC(=O)O)NC(=O)c2ccc(-c3ccccc3)cc2)cc1 [Example 10E, N^2-(biphenyl-4-ylcarbonyl)-N^1-[2-(2′-ethoxybiphenyl-4-yl)ethyl]-L-α-glutamine] — 5.9-fold lower, 370 nM
- O=C(O)CC[C@H](NC(=O)c1ccc(-c2ccccc2)cc1)C(=O)NCCc1ccc(-c2ccncc2)cc1 [Example 10H, N^2-(biphenyl-4-ylcarbonyl)-N^1-[2-(4-pyridin-4-ylphenyl)ethyl]-L-α-glutamine] — 7.3-fold lower, 300 nM
- O=C(O)CC[C@H](NC(=O)c1ccc(-c2ccccc2)cc1)C(=O)NCCc1cccc(-c2ccccn2)c1 [Example 10I, N^2-(biphenyl-4-ylcarbonyl)-N^1-[2-(3-pyridin-2-ylphenyl)ethyl]-L-α-glutamine] — 6.9-fold lower, 320 nM
- O=Cc1ccc(-c2cccc(CCNC(=O)[C@H](CCC(=O)O)NC(=O)c3ccc(-c4ccccc4)cc3)c2)cc1 [Example 10J, N^2-(biphenyl-4-ylcarbonyl)-N^1-[2-(4′-formylbiphenyl-3-yl)ethyl]-L-α-glutamine] — 8.5-fold lower, 260 nM
- O=C(O)CC[C@H](NC(=O)c1ccc(-c2ccccc2)cc1)C(=O)NCc1cccc(-c2ccc(C(F)(F)F)cc2)c1 [Example 10O, N^2-(biphenyl-4-ylcarbonyl)-N^1-{[4′-(trifluoromethyl)biphenyl-3-yl]methyl}-L-α-glutamine] — 4.7-fold lower, 470 nM
- C#Cc1ccc(-c2cccc(CNC(=O)[C@H](CCC(=O)O)NC(=O)c3ccc(-c4ccccc4)cc3)c2)cc1 [Example 10P, N^2-(biphenyl-4-ylcarbonyl)-N^1-[(4′-ethynylbiphenyl-3-yl)methyl]-L-α-glutamine] — 3.1-fold lower, 700 nM
- C#Cc1ccc(-c2ccc(C(=O)N[C@@H](CCC(=O)O)C(=O)NCc3ccccc3)cc2)cc1 [Example 12B, N^1-benzyl-N^2-[(4′-ethynyl-1,1′-biphenyl-4-yl)carbonyl]-L-α-glutamine] — 16-fold higher, 35000 nM
- O=C(O)CC[C@H](NC(=O)c1ccc(-c2cccnc2)cc1)C(=O)NCc1ccccc1 [Example 12C, N^1-benzyl-N^2-(4-pyridin-3-ylbenzoyl)-L-α-glutamine] — 11-fold higher, 25000 nM
- O=C(O)CC[C@H](NC(=O)c1ccc(-c2nccs2)cc1)C(=O)NCc1ccccc1 [Example 12D, N^1-benzyl-N^2-[4-(1,3-thiazol-2-yl)benzoyl]-L-α-glutamine] — higher, > 100000 nM
- O=C(O)CC[C@H](NC(=O)c1ccc(-c2ccccn2)cc1)C(=O)NCc1ccccc1 [Example 12E, N^1-benzyl-N^2-(4-pyridin-2-ylbenzoyl)-L-α-glutamine] — within 1.5-fold, 1800 nM
- Cc1ccc(C)c(-c2ccc(C(=O)N[C@@H](CCC(=O)O)C(=O)NCc3ccccc3)cc2)c1 [Example 13B, N^1-benzyl-N^2-[(2′,5′-dimethyl-1,1′-biphenyl-4-yl)carbonyl]-L-α-glutamine] — 23-fold higher, ~50000 nM
- CCc1ccc(-c2ccc(C(=O)N[C@@H](CCC(=O)O)C(=O)NCc3ccccc3)cc2)cc1 [Example 13C, N^1-benzyl-N^2-[(4′-ethyl-1,1′-biphenyl-4-yl)carbonyl]-L-α-glutamine] — 4.4-fold higher, 9600 nM
- CCOc1ccccc1-c1ccc(C(=O)N[C@@H](CCC(=O)O)C(=O)NCc2ccccc2)cc1 [Example 13E, N^1-benzyl-N^2-[(2′-ethoxy-1,1′-biphenyl-4-yl)carbonyl]-L-α-glutamine] — 11-fold higher, ~25000 nM
- Cc1cccc(C)c1-c1ccc(C(=O)N[C@@H](CCC(=O)O)C(=O)NCc2ccccc2)cc1 [Example 13F, N^1-benzyl-N^2-[(2′,6′-dimethyl-1,1′-biphenyl-4-yl)carbonyl]-L-α-glutamine] — 11-fold lower, ~200 nM
- C=Cc1ccc(-c2ccc(C(=O)N[C@@H](CCC(=O)O)C(=O)NCc3ccccc3)cc2)cc1 [Example 13G, N^1-benzyl-N^2-[(4′-vinyl-1,1′-biphenyl-4-yl)carbonyl]-L-α-glutamine] — within 1.5-fold, ~2500 nM
- CCCOc1ccc(-c2ccc(C(=O)N[C@@H](CCC(=O)O)C(=O)NCc3ccccc3)cc2)cc1 [Example 15A, N^1-benzyl-N^2-[(4′-propoxy-1,1′-biphenyl-4-yl)carbonyl]-L-α-glutamine] — higher, > 22000 nM
- C=CCOc1ccc(-c2ccc(C(=O)N[C@@H](CCC(=O)O)C(=O)NCc3ccccc3)cc2)cc1 [Example 15E, N^2-{[4′-(allyloxy)-1,1′-biphenyl-4-yl]carbonyl}-N^1-benzyl-L-α-glutamine] — 1.6-fold higher, 3500 nM
- COc1cccc(COc2ccc(-c3ccc(C(=O)N[C@@H](CCC(=O)O)C(=O)NCc4ccccc4)cc3)cc2)c1 [Example 15F, N^1-benzyl-N^2-({4′-[(3-methoxybenzyl)oxy]-1,1′-biphenyl-4-yl}carbonyl)-L-α-glutamine] — 3.7-fold lower, 600 nM
- O=C(O)CC[C@H](NC(=O)c1ccc(-c2ccc(OCc3ccc4ccccc4c3)cc2)cc1)C(=O)NCc1ccccc1 [Example 15H, N^1-benzyl-N^2-{[4′-(2-naphthylmethoxy)-1,1′-biphenyl-4-yl]carbonyl}-L-α-glutamine] — 11-fold lower, 200 nM
